From US20250281424A1 (New York Blood Center, Inc, priority 2020, published 2025)

Molecular target: T1, human PF4 (Homo sapiens, UniProt P02776)
T1 construct: PF4 is a 70 amino acid, lysine-rich 7.8 kDa platelet-specific protein; made in house; host or cells: Escherichia coli BL21DE3 pLysS (pT7-7) and/or Drosophila S2 cells
T1 sequence (P02776 32-101): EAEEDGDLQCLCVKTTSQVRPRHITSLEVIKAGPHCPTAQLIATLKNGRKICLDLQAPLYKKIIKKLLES
Experiment: Inhibition of PF4 tetramer formation (BS3 cross-linking, SDS-PAGE)
Assay type: biochemical
Details: for inhibition at 5 µM: 5 μM inhibitor; for inhibition at 5 µM / inhibition at 10 µM / inhibition at 1 µM / inhibition at 3 µM: read-out: % inhibition of PF4 tetramer formation at single concentration of inhibitor; for inhibition at 10 µM: 10 μM inhibitor (column A); for IC50: read-out: IC50 of PF4 tetramer formation inhibition; for inhibition at 1 µM: 1 μM inhibitor; for inhibition at 3 µM: 3 μM inhibitor (column A)
How it was run: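 Monomer, dimer, trimer and tetramer fractions were quantified by densitometry after reducing 12% SDS-PAGE of BS3-cross-linked (0.2 mM, 30 min, room temperature) PF4. Before cross-linking, 10 μg/ml E. coli-expressed human WT PF4 in PBS was exposed to compound for 15 min at 37° C or 60 min at room temperature; controls lacked compound.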

Row | inhibition at 5 µM | inhibition at 10 µM | IC50 | inhibition at 1 µM | inhibition at 3 µM | Compound
1 | 90% | 92% | 2500 nM | – | – | CO[C@@H]1O[C@H](C(=O)C2C(=O)c3ccc(S(=O)(=O)c4ccc5c(c4)C(=O)C(C(=O)[C@H]4O[C@@H](OC)[C@H]6OC(C)(C)O[C@@H]64)C5=O)cc3C2=O)[C@H]2OC(C)(C)O[C@H]12 (stereo partly drawn) [Example 220, 2-[(3aS,4S,6R,6aS)-6-methoxy-2,2-dimethyl-tetrahydro-2H-furo[3,4-d][1,3]dioxole-4-carbonyl]-5-({2-[(3aS,4S,6R,6aS)-6-methoxy-2,2-dimethyl-tetrahydro-2H-furo[3,4-d][1,3]dioxole-4-carbonyl]-1,3-dioxo-2,3-dihydro-1H-inden-5-yl}sulfonyl)-2,3-dihydro-1H-indene-1,3-dione]
2 | – | – | 1510 nM | 21% | 72% | COCC(=O)C1C(=O)c2ccc(C(=O)c3ccc4c(c3)C(=O)C(C(=O)COC)C4=O)cc2C1=O (stereo not shown) [Example 234, 2-(2-methoxyacetyl)-5-[2-(2-methoxyacetyl)-1,3-dioxo-2,3-dihydro-1H-indene-5-carbonyl]-2,3-dihydro-1H-indene-1,3-dione]
3 | – | – | – | 7% | 100% | O=C(c1ccc2c(c1)C(=O)C(C(=O)Cc1cccnc1)C2=O)c1ccc2c(c1)C(=O)C(C(=O)Cc1cccnc1)C2=O (stereo not shown) [Example 238, 5-{1,3-dioxo-2-[2-(pyridin-3-yl)acetyl]-2,3-dihydro-1H-indene-5-carbonyl}-2-[2-(pyridin-3-yl)acetyl]-2,3-dihydro-1H-indene-1,3-dione]
4 | – | – | – | 18% | 55% | Cc1ccccc1C(=O)CCC(=O)C1C(=O)c2ccc(Oc3ccc4c(c3)C(=O)C(C(=O)CCC(=O)c3ccccc3C)C4=O)cc2C1=O (stereo not shown) [Example 259, 2-[4-(2-methylphenyl)-4-oxobutanoyl]-5-({2-[4-(2-methylphenyl)-4-oxobutanoyl]-1,3-dioxo-2,3-dihydro-1H-inden-5-yl}oxy)-2,3-dihydro-1H-indene-1,3-dione]
5 | – | 35% | – | – | – | CCC(=O)C1C(=O)c2ccc(C(=O)c3ccc4c(c3)C(=O)C(C(=O)CC)C4=O)cc2C1=O (stereo not shown) [Example 324, 5-(1,3-dioxo-2-propanoyl-2,3-dihydro-1H-indene-5-carbonyl)-2-propanoyl-2,3-dihydro-1H-indene-1,3-dione]
6 | 13% | 21% | – | – | – | O=C(c1ccc2c(c1)C(=O)C(C(=O)[C@@H]1CCN1)C2=O)c1ccc2c(c1)C(=O)C(C(=O)[C@@H]1CCN1)C2=O (stereo partly drawn) [Example 116, 2-[(2S)-azetidine-2-carbonyl]-5-{2-[(2S)-azetidine-2-carbonyl]-1,3-dioxo-2,3-dihydro-1H-indene-5-carbonyl}-2,3-dihydro-1H-indene-1,3-dione]
7 | – | – | 1290 nM | 69% | 100% | COCCOCCNC(=O)C1C(=O)c2ccc(Oc3ccc4c(c3)C(=O)C(C(=O)NCCOCCOC)C4=O)cc2C1=O (stereo not shown) [Example 291, 5-({2-[hydroxy({[2-(2-methoxyethoxy)ethyl]amino})methyl]-1,3-dioxo-2,3-dihydro-1H-inden-5-yl}oxy)-N-[2-(2-methoxyethoxy)ethyl]-1,3-dioxo-2,3-dihydro-1H-indene-2-carboxamide]
8 | – | – | – | 6% | 23% | CC(=O)OC[C@H]1O[C@@H](OC(C)=O)[C@H](NC(=O)C2C(=O)c3ccc(C(=O)c4ccc5c(c4)C(=O)C(C(=O)N[C@H]4[C@H](OC(C)=O)O[C@H](COC(C)=O)[C@@H](OC(C)=O)[C@@H]4OC(C)=O)C5=O)cc3C2=O)[C@@H](OC(C)=O)[C@@H]1OC(C)=O (stereo partly drawn) [Example 398, [(2R,3S,4R,5R,6S)-3,4,6-tris(acetyloxy)-5-[5-(1,3-dioxo-2-{[(2S,3R,4R,5S,6R)-2,4,5-tris(acetyloxy)-6-[(acetyloxy)methyl]oxan-3-yl]carbamoyl}-2,3-dihydro-1H-indene-5-carbonyl)-1,3-dioxo-2,3-dihydro-1H-indene-2-amido]oxan-2-yl]methyl acetate]

The remaining lines, values behind:

Row | Compound | inhibition at 5 µM | inhibition at 10 µM | IC50 | inhibition at 1 µM | inhibition at 3 µM
9 | CC(C)(C)OC(=O)N1CC[C@@H](C(=O)C2C(=O)c3ccc(C(=O)c4ccc5c(c4)C(=O)C(C(=O)[C@@H]4CCN(C(=O)OC(C)(C)C)C4)C5=O)cc3C2=O)C1 (stereo partly drawn) [Example 123, tert-butyl (3R)-3-(5-{2-[(3R)-1-[(tert-butoxy)carbonyl]pyrrolidine-3-carbonyl]-1,3-dioxo-2,3-dihydro-1H-indene-5-carbonyl}-1,3-dioxo-2,3-dihydro-1H-indene-2-carbonyl)pyrrolidine-1-carboxylate] | 88% | 89% | 1600 nM | – | –
10 | CC(C)(C)OC(=O)N1CC[C@H]1C(=O)C1C(=O)c2ccc(S(=O)(=O)c3ccc4c(c3)C(=O)C(C(=O)[C@@H]3CCN3C(=O)OC(C)(C)C)C4=O)cc2C1=O (stereo partly drawn) [Example 138, tert-butyl (2S)-2-[5-({2-[(2S)-1-[(tert-butoxy)carbonyl]azetidine-2-carbonyl]-1,3-dioxo-2,3-dihydro-1H-inden-5-yl}sulfonyl)-1,3-dioxo-2,3-dihydro-1H-indene-2-carbonyl]azetidine-1-carboxylate] | – | – | 4100 nM | – | –
11 | CO[C@@H](C)C(=O)C1C(=O)c2ccc(C(=O)c3ccc4c(c3)C(=O)C(C(=O)[C@H](C)OC)C4=O)cc2C1=O (stereo partly drawn) [Example 236, 2-[(2S)-2-methoxypropanoyl]-5-{2-[(2S)-2-methoxypropanoyl]-1,3-dioxo-2,3-dihydro-1H-indene-5-carbonyl}-2,3-dihydro-1H-indene-1,3-dione] | – | – | – | 20% | 25%
12 | COc1ccc(NC(=O)C2C(=O)c3ccc(S(=O)(=O)c4ccc5c(c4)C(=O)C(C(=O)Nc4ccc(OC)cc4OC)C5=O)cc3C2=O)c(OC)c1 (stereo not shown) [Example 94, N-(2,4-dimethoxyphenyl)-5-({2-[(2,4-dimethoxyphenyl)carbamoyl]-1,3-dioxo-2,3-dihydro-1H-inden-5-yl}sulfonyl)-1,3-dioxo-2,3-dihydro-1H-indene-2-carboxamide] | 33% | 62% | – | – | –
13 | CC(C)(C)OC(=O)NCCC(=O)C1C(=O)c2ccc(Oc3ccc4c(c3)C(=O)C(C(=O)CCNC(=O)OC(C)(C)C)C4=O)cc2C1=O (stereo not shown) [Example 267, tert-butyl N-[3-(5-{[2-(3-{[(tert-butoxy)carbonyl]amino}propanoyl)-1,3-dioxo-2,3-dihydro-1H-inden-5-yl]oxy}-1,3-dioxo-2,3-dihydro-1H-inden-2-yl)-3-oxopropyl]carbamate] | – | 100% | – | – | –
14 | O=C1CC(=O)c2cc(S(=O)(=O)c3ccc4c(c3)C(=O)CC4=O)ccc21 [Example 12, 5,5′-sulfonylbis(1h-indene-1,3(2h)-dione)] | – | – | 2320 nM | – | –
15 | O=C(c1ccc2c(c1)C(=O)C(C(=O)NCc1ccccc1)C2=O)c1ccc2c(c1)C(=O)C(C(=O)NCc1ccccc1)C2=O (stereo not shown) [Example 25, 5,5′-carbonylbis(1,3-dioxo-indan-2-carboxylic acid ((phenyl)methyl)-amide)] | 63% | 70% | 6240 nM | – | –
16 | COC(=O)c1ccc(NC(=O)C2C(=O)c3ccc(S(=O)(=O)c4ccc5c(c4)C(=O)C(C(=O)Nc4ccc(C(=O)OC)cc4)C5=O)cc3C2=O)cc1 (stereo not shown) [Example 98, methyl 4-{5-[(2-{[4-(methoxycarbonyl)phenyl]carbamoyl}-1,3-dioxo-2,3-dihydro-1H-inden-5-yl)sulfonyl]-1,3-dioxo-2,3-dihydro-1H-indene-2-amido}benzoate] | 100% | 100% | – | – | –
17 | CC(C)CCCC(=O)C1C(=O)c2ccc(C(=O)c3ccc4c(c3)C(=O)C(C(=O)CCCC(C)C)C4=O)cc2C1=O (stereo not shown) [Example 189, 2-(5-methylhexanoyl)-5-[2-(5-methylhexanoyl)-1,3-dioxo-2,3-dihydro-1H-indene-5-carbonyl]-2,3-dihydro-1H-indene-1,3-dione] | 62% | 71% | – | – | –
18 | COc1ccc(NC(=O)C2C(=O)c3ccc(S(=O)(=O)c4ccc5c(c4)C(=O)C(C(=O)Nc4ccc(OC)cc4)C5=O)cc3C2=O)cc1 (stereo not shown) [Example 35, 5,5′-sulphonylbis(1,3-dioxo-indan-2-carboxylic acid (4-methoxyphenyl)-amide)] | 54% | 77% | 2850 nM | – | –
19 | O=C(CC1CCCC1)C1C(=O)c2ccc(S(=O)(=O)c3ccc4c(c3)C(=O)C(C(=O)CC3CCCC3)C4=O)cc2C1=O (stereo not shown) [Example 142, 2-(2-cyclopentylacetyl)-5-{[2-(2-cyclopentylacetyl)-1,3-dioxo-2,3-dihydro-1H-inden-5-yl]sulfonyl}-2,3-dihydro-1H-indene-1,3-dione] | 95% | 94% | 18000 nM | – | –
20 | CC(C)(C)OC(=O)N1C[C@@H]2[C@H](C1)[C@H]2C(=O)C1C(=O)c2ccc(-c3ccc4c(c3)C(=O)C(C(=O)[C@H]3[C@@H]5CN(C(=O)OC(C)(C)C)C[C@@H]53)C4=O)cc2C1=O (stereo partly drawn) [Example 216, tert-butyl (1R,5S,6R)-6-{2′-[(1R,5S,6R)-3-[(tert-butoxy)carbonyl]-3-azabicyclo[3.1.0]hexane-6-carbonyl]-1,1′,3,3′-tetraoxo-1H,1′H,2H,2′H,3H,3′H-[5,5′-biindene]-2-carbonyl}-3-azabicyclo[3.1.0]hexane-3-carboxylate] | 82% | 91% | 2500 nM | – | –
21 | CSCCCC(=O)C1C(=O)c2ccc(Oc3ccc4c(c3)C(=O)C(C(=O)CCCSC)C4=O)cc2C1=O (stereo not shown) [Example 283, 2-[4-(methylsulfanyl)butanoyl]-5-({2-[4-(methylsulfanyl)butanoyl]-1,3-dioxo-2,3-dihydro-1H-inden-5-yl}oxy)-2,3-dihydro-1H-indene-1,3-dione] | – | 86% | 10000 nM | – | –
